The values below come from paper PMC2965657, “Antioxidant Biomarkers from Vanda coerulea Stems Reduce Irradiated HaCaT PGE-2 Production as a Result of COX-2 Inhibition” (PLoS ONE, 2010).

Like-named read-outs stand apart in the source and are kept apart here.

Experiment [1] can be described thus: •OH radical scavenging (luminol chemiluminescence). Particulars: mean ± sd. As to the method:
(§1) All in vitro radical-scavenging experiments (DPPH, ^•OH/luminol chemiluminescence) and IC50 calculations were assayed as previously described by Parejo et al. Results were expressed as percentage inhibition of DPPH discolouration and luminol chemiluminescence reduction, respectively. The concentration effect (logarithmic curve) obtained for each compound was used to calculate IC50. Serial dilutions of 1–5, and quercetin (used as standard reference) were prepared in MeOH.

Experiment [2] is described as follows: DPPH radical scavenging (DPPH discolouration). Particulars: mean ± sd; half-maximal neutralization of radical DPPH. On the procedure: as §1
A general note: DPPH is a stable violet radical that fades when it is reduced.

The test system of experiment [3] is UVB (60 mJ/cm^2) irradiated HaCaT keratinocytes. As to the kind of experiment: PGE-2 production by UVB irradiated HaCaT (EIA). The class given is cell-based, human. As to conditions: for IC50: read-out: IC50 inhibition of HaCaT PGE-2 production. On the procedure:
(§2) For measurement of reactive oxygen species neutralization and PGE-2 quantification with Vanda coerulea stem biomarkers, HaCaT cells were seeded in black 96-well microplates (Greiner Bio One 655090) at a concentration of 10^3 cells/well in complemented KSFM with 5% FBS. Microplates were incubated during 24 h (37°C, 5% CO2) before UVB irradiation at 60 mJ/cm^2 and treatment. For western blot analysis HaCaT cells were seeded at a density of 10^6 cells/ 100 mm dishes and incubated during 48 h before irradiation with UVB at 60 mJ/cm^2 (UV Lamp, VL-6LM, Vilber Lourmat) and treatment. All experiments were performed at 90% cell confluency. Cell viability was previously evaluated thanks to XTT analysis according to Roehm NW et al. Serial dilutions of 1–3, were prepared in DMSO (0.1% v/v final concentration). The first higher concentration tested was not cytotoxic (data not shown).
Indomethacin (2.79 µM), a non-steroidal COX inhibitor, was used as a positive reference. Treated microplates were incubated at 37°C, 5% CO2. Untreated irradiated and non irradiated cells (DMSO 0.1% v/v final) were respectively used as positive and negative controls. After 24 h, supernatants were harvested for PGE-2 concentration measurement and BCA assay was realized to determine total cellular protein in each well. PGE-2 concentration was measured using the enzyme immunoassay Parameter™ PGE-2 kit (R&D Systems) according to the manufacturer's instructions. Each PGE-2 quantification (QPGE-2) was reported to total protein concentration per well.
Results were expressed as inhibition percentage of PGE-2 (I PGE-2) production compared with untreated irradiated cells (positive control).
I PGE-2 = 100- ((QPGE2) sample/ (QPGE2) positive control) ×100.
Inhibition percentages were plotted according to compounds 1–3 concentrations. Logarithmic regression analysis of the mean replicate values was used to calculate IC50 (Concentration causing half-maximal Inhibition of irradiated HaCaT PGE-2 production)

The subject of experiment [4] is COX-2 expression in irradiated HaCaT cells. As to the kind of experiment: COX-2 expression by Western blot in UVB irradiated HaCaT. The class given is cell-based, human. As to conditions: 2.87 µM, 16 h, COX-2/β-actin vs UVB+. As to the method: as §2
After UVB irradiation 100 mm dishes were treated with stilbenoids 1–3 at 23 µM and 2.87 µM in a serum free medium and incubated during 16 h (37°C, 5% CO2). Untreated irradiated (UVB+) and non irradiated (UVB-) cells were used as positive and negative controls respectively. […] The protein concentration of each sample was determined using a Bradford assay. […] Results were expressed as fold decrease compared to the (UVB+) control. […]

For experiment [5] the following is noted: cited from earlier work.
Experiment [6] addresses T1, human recombinant COX-2 (Homo sapiens, UniProt P35354).
T1 sequence (P35354 18-604): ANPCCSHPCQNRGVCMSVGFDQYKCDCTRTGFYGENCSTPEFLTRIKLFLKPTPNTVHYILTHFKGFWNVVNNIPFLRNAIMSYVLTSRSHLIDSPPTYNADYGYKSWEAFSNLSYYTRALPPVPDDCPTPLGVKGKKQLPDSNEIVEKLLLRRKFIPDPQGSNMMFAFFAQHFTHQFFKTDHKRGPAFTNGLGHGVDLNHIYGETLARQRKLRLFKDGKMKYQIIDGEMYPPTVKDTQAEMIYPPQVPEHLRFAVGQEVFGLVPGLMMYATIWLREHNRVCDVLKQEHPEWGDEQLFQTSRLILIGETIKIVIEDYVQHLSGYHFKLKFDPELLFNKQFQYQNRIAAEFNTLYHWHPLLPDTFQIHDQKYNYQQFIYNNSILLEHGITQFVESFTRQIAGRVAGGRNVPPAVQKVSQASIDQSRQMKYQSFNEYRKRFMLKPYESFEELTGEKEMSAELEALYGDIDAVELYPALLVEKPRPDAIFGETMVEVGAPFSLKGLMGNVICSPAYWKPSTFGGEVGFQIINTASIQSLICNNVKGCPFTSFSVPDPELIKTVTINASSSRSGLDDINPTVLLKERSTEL
Put plainly: COX-2 enzyme activity (PGE-2 formation from arachidonic acid). The class given is biochemical. As to conditions: for IC50: 2 µM arachidonic acid, mean ± sd, read-out: IC50 inhibition of COX-2 enzyme activity; for inhibition of COX-2 enzyme activity: up to 100 µM. As to the method:
Serial dilutions of 1–3 were prepared in DMSO. Six concentrations were tested from 0.1 µM to 100 µM for imbricatin (1), from 0.03 to 100 µM for methoxycoelonin (2) and from 0.3 µM to 100 µM for gigantol (3).
Stilbenoids 1–3, indomethacin and water (negative control) were pre-incubated for 20 min at 22°C with the human recombinant COX-2 enzyme (0.2 µg) in buffer containing 100 mM Tris-HCl (pH 8.0), 2 mM phenol and 1 µM hematine. Thereafter, the reaction was initiated by addition of 2 µM arachidonic acid and the mixture was incubated for 5 min at 22°C. For basal control measurements, arachidonic acid was omitted from the medium. Indomethacin was used as positive inhibitory reference.
Following incubation, the reaction was stopped by the addition of 1 M HCl then 1 M Tris/HCl (pH 8.0) followed by cooling to 4°C. The amount of PGE-2 present in the reaction mixture was quantified using an EIA detection kit (Cayman Chemical).
The results were expressed as inhibition percentage of the control enzyme activity:
100–[(activity measured in the presence of the compound/control enzyme activity) ×100]
The IC50 values (concentration causing a half-maximal inhibition of control enzyme activity) and Hill coefficients (nH) were determined by non-linear regression analysis of the inhibition curves generated with mean replicate values using Hill equation curve fitting.

Experiment [7] concerns H2O2 stressed HaCaT cells. As to the kind of experiment: Intracellular ROS neutralization with DCFH-DA probe in H2O2 stressed HaCaT. The class given is cell-based. As to conditions: Homo sapiens, H2O2 100 µM, mean ± sd. On the procedure: as §2
The DCFH-DA method was used to detect the levels of intracellular ROS [32] DCFH-DA diffuses into cells, where it is hydrolyzed by intracellular esterase to polar 2′,7′-dichlorodihydrofluorescein. This non-fluorescent fluorescein analog is oxidized by intracellular oxidants to a highly fluorescent, 2′,7′-dichlorofluorescein. Tocopherol [Sigma] (25 µM) was used as a positive reference. HaCaT cells were seeded as described and treated with serial dilutions of 1–3 and quercetin (standard reference) after 24 h incubation. Treated microplates were further incubated during 24 h (37°C, 5% CO2). HaCaT cells were washed with phosphate buffer saline (PBS), and DCFH-DA (0.05 mM) was added to the cells. 45 min after incubation, cells were stimulated by a H2O2 solution (100 µM in PBS) to generate an oxidative stress. Immediately after F(T0) and 40 min after stimulation F(T40), DCFH fluorescence was detected at an excitation wavelength of 485 nm and an emission wavelength of 535 nm, using a SpectraFluor Plus spectrofluorometer (Tecan). Two kinds of assay controls were used: negative control was non-stimulated cells and positive control was H2O2 stressed cells (DMSO 0.1% v/v). Results were expressed in percentage of fluorescence inhibition (% of ROS neutralization) calculated by comparison with H2O2 stimulated cells.
(% of ROS neutralization) = [1- [F(T40)-F(T0)] sample/[F(T40)-F(T0)] positive control] ×100.
Inhibition percentages were plotted according to compounds 1–3 and quercetin concentrations. Logarithmic regression analysis of the mean replicate values was used to calculate IC50 (Concentration causing half-maximal neutralization of ROS on H2O2 stressed HaCaT)

Experiment [8] has as its system irradiated (UVB 60 mJ/cm2) normal human epidermal keratinocytes (NHEK). Put plainly: PGE-2 release from UVB irradiated normal human epidermal keratinocytes. The experiment is classed as cell-based. As to conditions: light or radiation study, vs UVB+ control, read-out: inhibition of PGE-2 production. On the procedure: Supplementary file pone.0013713.s001.tif: Figure S1 Concentration-dependent effect of stilbenoids (1-3) on PGE-2 release from irradiated (UVB 60 mJ/cm2) normal human epidermal keratinocytes (NHEK). Histogram represents the quantity of PGE-2 produced (PGE-2/ total NHEK proteins pg/µg) according to different treatments. Untreated irradiated (UVB+) and non irradiated (UVB-) NHEK were used as positive and negative controls, respectively. […] Inhibition percentages of PGE-2 release were calculated by comparison with the positive control (UVB+). Values represen mean ± sds calculated with three independent experiments. Treatment groups were compared by using one way analysis of variance ANOVA post-hoc test. Student paired t test was used to compare each stilbenoid effect to the positive control. Statistical significance (*) was set at p<0.05. Significant differences were observed between each biomarker effect. IC50 were calculated with more points than those represented here on the graph. (0.82 MB TIF) Click here for additional data file.

[9] abbreviates: Homo sapiens, light or radiation study, UVB 60 mJ/cm^2 irradiated HaCaT, 24 h, mean ± sd.

By IC50 is commonly meant the point on the concentration scale where inhibition reaches its midpoint. For `Oc1cc2c3c(c1)COc1cc(O)cc(c1-3)CC2` [Flavidin (4), Flavidin], the 50% inhibitory concentration (IC50) is 0.076 ± 0.014 µM in experiment [1] and 6.61 ± 1.07 µM in experiment [2].

In the case of `COc1cc(O)cc(CCc2ccc(O)c(OC)c2)c1` [Gigantol (3), Gigantol], the “inhibition of PGE-2 production” value in experiment [3] (2.87 µM, UVB irradiated HaCaT) is given as “strong inhibition”. The “fold stronger inhibition of PGE-2 production on human HaCaT than on murine macrophage RAW 264.7” value in experiment [3] (HaCaT (this work) versus RAW 264.7 (ref 38)) is given as 16 fold. The “IC50 inhibition of HaCaT PGE-2 production” value in experiment [3] (UVB 60 mJ/cm^2 irradiated HaCaT, 24 h, mean ± sd) was “No concentration-dependanteffect”. Also, the IC50 was 0.157 ± 0.039 µM in experiment [1]; 14 ± 1.69 µM in experiment [2]; 56.4 µM in experiment [5] (Zhang X et al); no less than 100 µM in experiment [6]; 20.6 ± 0.5 µM in experiment [7]. Besides, the “effect on UVB-induced COX-2 expression” value in experiment [4] is reported as “did not inhibit”. The “inhibition of COX-2 enzyme activity” value in experiment [6] is “did not display significant inhibition”.

With `COc1c(O)cc2c3c1COc1cc(O)cc(c1-3)CC2` [Imbricatin (1), Imbricatin], the IC50 was 12.2 ± 2.9 µM in experiment [3] (setting [9]); 0.034 ± 0.011 µM in experiment [1]; 8.37 ± 0.61 µM in experiment [2]; 8.8 µM in experiment [5] (Guo XY et al); 12 ± 1.2 µM in experiment [6]; 8.8 ± 1.7 µM in experiment [7]. Further, the “inhibition of COX-2 enzyme activity” value in experiment [6] was “inhibited significantly”.

As usually defined, the inhibition is the percentage by which the read-out fell short of the control. Take `COc1ccc2c(c1)c(CC(=O)O)c(C)n2C(=O)c1ccc(Cl)cc1` [Indomethacin, reference compound]: the inhibition at 2.79 µM in experiment [3] (Homo sapiens, light or radiation study, 2.79 µM, UVB irradiated HaCaT, vs UVB+ control) was found to be 54%; in experiment [8] it was 86%. Moreover, the IC50 in experiment [3] (setting [9]) was 2.7 ± 0.7 µM.

For `COc1cc2c(cc1O)CCc1cc(O)cc(OC)c1-2` [Methoxycoelonin (2), Methoxycoelonin], the IC50 in experiment [3] (setting [9]) turned out to be 19.3 ± 3.8 µM; in experiment [1] it was 0.035 ± 0.008 µM; in experiment [2] it was 9.01 ± 0.93 µM; in experiment [6], 5.8 ± 1.2 µM; in experiment [7] it was 9.4 ± 2.1 µM. Moreover, the “inhibition of COX-2 enzyme activity” value in experiment [6] is “inhibited significantly”.

Take `O=c1c(O)c(-c2ccc(O)c(O)c2)oc2cc(O)cc(O)c12` [Quercetin, reference compound]: the IC50 is 0.045 ± 0.012 µM in experiment [1], 2.42 ± 0.65 µM in experiment [2] and 13.8 ± 2.2 µM in experiment [7].

Regarding Coelonin [Coelonin (5)], the values for the half-maximal inhibitory concentration (IC50) in experiment [1], in experiment [2] and in experiment [5] (Wang J et al) were 0.079 ± 0.018 µM, 8.47 ± 1.58 µM and 16.7 µM, respectively.
